Measured values: US20240082282A1 (priority 2020, published 2024)
pKd: −log10 of the molar value. Like-named read-outs stand apart in the source and are kept apart here.

Legend:
[1] = test system: Borrelia burgdorferi (B31, N40, 297); type: cell-based
B. turcica KLEX1 = assay: MIC of hygromycin A resistant mutant; type: cell-based
B. burgdorferi B31 KLEX2 = assay: MIC of hygromycin A resistant mutant; type: cell-based
B. burgdorferi = assay: Efficacy of hygromycin A in Peromyscus mice; type: in vivo; conditions: Peromyscus leucopus, subcutaneous, twice a day, 5 days
Source text: Mice were sacrificed on Day 11 and the heart, ankle, and ear were taken for culture. Cultures were monitored by darkfield microscopy for 4 weeks or until positive.

[2] = test system: GFP-inducible B. burgdorferi strain pCRW53; assay: Measurement of protein synthesis inhibition (GFP, FACS); type: cell-based
E. coli ribosomes = assay: Toeprinting / in vitro translation, affinity to ribosome; type: biochemical
FaDu = conditions: alamar blue, 72 hours
[3] = test system: FaDu, HepG2 and HEK293-RFP cells; conditions: a number of human cell lines
[4] = test system: Brachyspira (formerly Treponema) hyodysenteriae; conditions: report of a group from Japan; cited from earlier work
[5] = test system: Leptospira interrogans ATCC BAA-1198
E. coli WT BW25113 = assay: MIC of E. coli mutant strains
[6] = test system: E. coli ΔtolC (no efflux); assay: MIC of E. coli mutant strains
[7] = test system: E. coli WT-Pore (hyperporinated); assay: MIC of E. coli mutant strains
[8] = test system: E. coli ΔtolC-Pore (no efflux, hyperporinated); assay: MIC of E. coli mutant strains
[9] = test system: Alkalispirochaeta americana DSM 14872
[10] = test system: E. coli ΔTolC+pBAD30 bmpD; assay: MIC of E. coli overexpressing bmpD; conditions: arabinose induced

With Hygromycin A the MIC ([1]; B. burgdorferi) was 0.25 µg/mL, the MIC ([1]; Borrelia burgdorferi (B31, N40, 297)) was 0.25 µg and the MIC ([1]; wild type B. burgdorferi (FIG. 7B)) was 0.25 µg/mL. For the same substance, the MIC (B. turcica KLEX1; B. turcica KLEX1, stable hygromycin A resistance) was 8 µg/mL, the “MIC increase as compared to wild type parent strain” value (B. turcica KLEX1; B. turcica KLEX1 vs parent) was 16 fold and the MIC (B. burgdorferi B31 KLEX2; B. burgdorferi B31 KLEX2, stable hygromycin A resistance) was 4 µg/mL. For the same substance, the “MIC increase as compared to wild type parent strain” value (B. burgdorferi B31 KLEX2; B. burgdorferi B31 KLEX2 vs parent) was 16 fold, the MIC (B. burgdorferi B31 KLEX2; Hygromycin A resistant B. burgdorferi (HygR) (FIG. 7B)) was 4 µg/mL and the “Culture positive (%)” value (B. burgdorferi; total daily dose 100 mg/kg/day) was 100%. For the same substance, the “Culture positive (%)” value (B. burgdorferi; total daily dose 200 mg/kg/day) was 0%, the “GFP level as compared to control (protein synthesis)” value [2] was “dramatically lower level of GFP” and the pKd (E. coli ribosomes; E. coli ribosomes, inferred from in vitro translation arrest, read-out: Kd of binding to the ribosome) was greater than 8.00. The “Arrest of in vitro translation of model ORFs” value (E. coli ribosomes; lowest concentration tested, 0.6 μM) was “complete arrest of translation”, the IC50 (FaDu) was greater than 512 µg/mL and the “EC50 (cytotoxicity)” value [3] was greater than 512. The “Treatment of pig dysentery” value [4] was “showed efficacy”, the “Minimum inhibitory concentration (MIC)” value [5] was 4 µg/mL and the MIC (Escherichia coli Nissle) was greater than 128 µg. For the same substance, the MIC (E. coli WT BW25113) was 512 µg/mL, the MIC ([6]; E. coli ΔtolC, no efflux) was 16 µg/mL and the “Decrease in MIC on addition of adenosine to E. coli” value ([6]; adenosine 2.5-2500 μM, concentration-dependent) was “up to 8 fold”. It also gave an MIC [7] of 512 µg/mL, an MIC [8] of 16 µg/mL and an MIC ([9]; Alkalispirochaeta americana) of 0.5 µg. For the same substance, the “Minimum inhibitory concentration (MIC)” value ([9]; Alkalispirochaeta americana DSM 14872, anaerobic) was 0.5 µg/mL and the “Reduction of E. coli MIC on inducing expression of BmpD” value [10] was 8 fold.
